Laboratory results as given in paper PMC12649549, “Sequence Permutation Generated Lysine and Tryptophan-Rich Antimicrobial Peptides with Enhanced Therapeutic Index” (Antibiotics, 2025).
Read-outs that look alike come from different tables or passages of the source.

Assays:
[1] = system: Pseudomonas aeruginosa Migula (ATCC 27853)
Procedure: (§1) The antibacterial and salt-resistant activity of the peptides was tested using Escherichia coli (ATCC 25922), Pseudomonas aeruginosa Migula (ATCC 27853), Acinetobacter sp. (BCRC number 14B0091, BCRC number 14B0097, and BCRC number 14B0100), and Staphylococcus aureus sp. strains (ATCC 25923, ATCC 33591, ATCC 33592, ATCC 33593, and ATCC 6538). All bacteria were obtained from the Food Industry Research and Development Institute (Hsinchu, Taiwan) and cultured in sterilized Müller-Hinton (MH) broth at 37 °C and 200 rpm for 8 h. The inoculum concentrations were determined by measuring the optical density at 600 nm (OD 600 = 1, approximately 10^8 CFU/mL) using an Ultrospec 2100 pro UV-Visible spectrophotometer (Biochrom Ltd., Cambridge, UK) after 8 h of culture.
(§2) The antibacterial activities of the peptides in Müller-Hinton (MH) broth and modified LYM broth were determined using the standard broth microdilution method as per Clinical and Laboratory Standards Institute (CLSI) guidelines. The LYM broth was prepared with specific components and adjusted to different conditions, including varying concentrations of NaCl and MgCl2, and different pH levels. To prepare the LYM broth, 5.4 mM KCl, 5.6 mM Na2HPO4, 0.5 mM MgSO4, and 1.0 mM sodium citrate were added. Additionally, 0.4 mg of ZnCl2, 2.0 mg of FeCl3·6H2O, 0.1 mg of CuSO4·5H2O, 0.1 mg of MnSO4·H2O, 0.1 mg of Na2B4O7∙10H2O, 700 mg of amino acid mixtures without tryptophan (Takara Bio Inc., San Jose, CA, USA), and 20 mg of L-tryptophan were added per liter of medium. The pH was adjusted to 7.4, and a vitamin mixture (100X, Sigma) and glucose concentration of 2% were added. For different conditions of LYM broth, NaCl concentrations of 300, 200, 150, and 50 mM, MgCl2 concentrations of 2.5, 1.5, and 0.5 mM, and pH levels of 6.5, 5.5, and 4.5 were adjusted. Bacterial strains were incubated in MH broth overnight, regrown, and diluted to a final concentration of 5 × 10^5 CFU/mL. Peptides were added to each well at final concentrations of 50, 25, 12.5, 6.25, 3.13, 1.56, and 0.78 µg/mL, and 99 µL of diluted microbes was loaded into each well of a polypropylene 96-well plate. […] The Morpheus HeatMap software (https://software.broadinstitute.org/morpheus/) was used to display MIC values on a color scale. All experiments were independently repeated three times.

S. aureus ATCC 6538 = system: S. aureus ATCC 6538
Procedure: as §1, §2

[2] = system: A. baumannii 14B00100 (Acinetobacter sp., BCRC number 14B0100)
Procedure: as §1, §2

S. aureus ATCC 33592 = system: S. aureus ATCC 33592
Procedure: as §1
as §2, with “For different conditions of LYM broth, NaCl concentrations of 300, 200, 150, and 50 mM, MgCl2 concentrations of 2.5, 1.5, and 0.5 mM, and pH levels of 6.5, 5.5, and 4.5 were adjusted.” left out

Gram-negative bacteria = test: Geometric mean MIC and therapeutic index, Gram-negative bacteria; format: cell-based; details: Gram-negative bacteria
Procedure: In this study, we aimed to investigate the potential of W5K series peptides for therapeutic use. To evaluate their efficacy for antibacterial therapy, we used the Therapeutic Index (TI) as a measure of their cell selectivity. The TI was calculated as the ratio of the concentration causing 10% hemolysis of human red blood cells (HC10) to the geometric mean minimum inhibitory concentration (GM) of the peptides against both Gram-negative and Gram-positive bacteria. This parameter was used to quantitatively assess the balance between antibacterial potency and cytotoxicity among the W5K derivatives.
as §2

[3] = LYM broth, 0 mM NaCl, 16 h, 37 °C
[4] = LYM broth, 50 mM NaCl, 16 h, 37 °C
[5] = LYM broth, 100 mM NaCl, 16 h, 37 °C
[6] = LYM broth, 200 mM (NaCl), 16 h, 37 °C
[7] = LYM broth, 300 mM (NaCl), 16 h, 37 °C
[8] = MH broth, 5 × 10^5 CFU/mL, 16 h, 37 °C, repeated three times

Substance: Ac-WRKWLKWLAKKKK-NH2 [Peptide W5K02]
- MIC [1, 3]: 6.25 µg/mL
- MIC ([1]; LYM broth, 0.5 mM MgCl2): 6.25 µg/mL
- MIC ([1]; LYM broth, 1.5 mM MgCl2): 6.25 µg/mL
- MIC ([1]; LYM broth, 2.5 mM MgCl2): 6.25 µg/mL
- MIC [1, 4]: 6.25 µg/mL
- MIC [1, 5]: 25 µg/mL
- MIC [1, 6]: >50 µg/mL
- MIC [1, 7]: >50 µg/mL
- MIC ([1]; LYM broth, pH 4.5): 3.13 µg/mL
- MIC ([1]; LYM broth, pH 5.5): 3.13 µg/mL
- MIC ([1]; LYM broth, pH 6.5): 3.13 µg/mL
- MIC [1, 8]: 25 µg/mL
- MIC (S. aureus ATCC 6538; [3]): 6.25 µg/mL
- MIC (S. aureus ATCC 6538; LYM broth, 0.5 mM MgCl2): 3.13 µg/mL
- MIC (S. aureus ATCC 6538; LYM broth, 1.5 mM MgCl2): 3.13 µg/mL
- MIC (S. aureus ATCC 6538; LYM broth, 2.5 mM MgCl2): 6.25 µg/mL
- MIC (S. aureus ATCC 6538; [4]): 6.25 µg/mL
- MIC (S. aureus ATCC 6538; [5]): 12.5 µg/mL
- MIC (S. aureus ATCC 6538; [6]): 25 µg/mL
- MIC (S. aureus ATCC 6538; [7]): 50 µg/mL
- MIC (S. aureus ATCC 6538; LYM broth, pH 4.5): 6.25 µg/mL
- MIC (S. aureus ATCC 6538; LYM broth, pH 5.5): 3.13 µg/mL
- MIC (S. aureus ATCC 6538; LYM broth, pH 6.5): 3.13 µg/mL
- MIC (S. aureus ATCC 6538; [8]): 12.5 µg/mL
- MIC [2, 3]: 1.56 µg/mL
- MIC ([2]; LYM broth, 0.5 mM MgCl2): 1.56 µg/mL
- MIC ([2]; LYM broth, 1.5 mM MgCl2): 1.56 µg/mL
- MIC ([2]; LYM broth, 2.5 mM MgCl2): 3.13 µg/mL
- MIC [2, 4]: 1.56 µg/mL
- MIC [2, 5]: 1.56 µg/mL
- MIC [2, 6]: 3.13 µg/mL
- MIC [2, 7]: 6.25 µg/mL
- MIC ([2]; LYM broth, pH 4.5): 1.56 µg/mL
- MIC ([2]; LYM broth, pH 5.5): 1.56 µg/mL
- MIC ([2]; LYM broth, pH 6.5): 1.56 µg/mL
- MIC [2, 8]: 6.25 µg/mL
- MIC (S. aureus ATCC 33592; [3]): 6.25 µg/mL
- MIC (S. aureus ATCC 33592; LYM broth, 0.5 mM MgCl2): 6.25 µg/mL
- MIC (S. aureus ATCC 33592; LYM broth, 1.5 mM MgCl2): 6.25 µg/mL
- MIC (S. aureus ATCC 33592; LYM broth, 2.5 mM MgCl2): 6.25 µg/mL
- MIC (S. aureus ATCC 33592; [4]): 6.25 µg/mL
- MIC (S. aureus ATCC 33592; [5]): 12.5 µg/mL
- MIC (S. aureus ATCC 33592; [6]): 50 µg/mL
- MIC (S. aureus ATCC 33592; [7]): >50 µg/mL
- MIC (S. aureus ATCC 33592; LYM broth, pH 4.5): 6.25 µg/mL
- MIC (S. aureus ATCC 33592; LYM broth, pH 5.5): 6.25 µg/mL
- MIC (S. aureus ATCC 33592; LYM broth, pH 6.5): 6.25 µg/mL
- MIC (S. aureus ATCC 33592; [8]): 25 µg/mL
- GM G− (geometric mean of the MIC values) (Gram-negative bacteria; MH broth, MIC >50 µg/mL counted as 100 µg/mL): 7.2 µg/mL
- Therapeutic Index (TI) G− (Gram-negative bacteria; HC10/GM): 2.3
